{"source": "patent US12480163B2", "about": "“Compositions and methods for identification assessment, prevention, and treatment of Ewing sarcoma using TP53 dependency biomarkers and modulators” (Dana-Farber Cancer Institute, Inc., priority 2018, dated 2025)", "key": {"[1]": {"system": "TP53 wild-type Ewing sarcoma cell lines", "test": "CellTiter-Glo cell viability assay, TP53 wild-type Ewing sarcoma cell lines", "type": "cell-based", "conditions": "TP53 wild-type Ewing sarcoma cell lines, treated for 3 d, micromolar concentrations", "description": "Cell viability was assessed using the CellTiter-Glo® Luminescent Cell Viability Assay (Promega). Viability assays were performed after Ewing sarcoma cell lines were infected with sgRNAs targeting TP53, MDM2, MDM4, PPM1D, or USP7 or treated with ATSP-7041, ATSP-7342, GSK2830371, P5091, XL-188, or vehicle control."}, "[2]": {"target": "T1, Wip1 (Homo sapiens, UniProt O15297)", "T1 construct": "Whole-cell lysates were extracted in cell lysis buffer (Cell Signaling); endogenous in cells; host or cells: TP53 wild-type Ewing sarcoma cell lines", "T1 sequence (O15297 1-605)": "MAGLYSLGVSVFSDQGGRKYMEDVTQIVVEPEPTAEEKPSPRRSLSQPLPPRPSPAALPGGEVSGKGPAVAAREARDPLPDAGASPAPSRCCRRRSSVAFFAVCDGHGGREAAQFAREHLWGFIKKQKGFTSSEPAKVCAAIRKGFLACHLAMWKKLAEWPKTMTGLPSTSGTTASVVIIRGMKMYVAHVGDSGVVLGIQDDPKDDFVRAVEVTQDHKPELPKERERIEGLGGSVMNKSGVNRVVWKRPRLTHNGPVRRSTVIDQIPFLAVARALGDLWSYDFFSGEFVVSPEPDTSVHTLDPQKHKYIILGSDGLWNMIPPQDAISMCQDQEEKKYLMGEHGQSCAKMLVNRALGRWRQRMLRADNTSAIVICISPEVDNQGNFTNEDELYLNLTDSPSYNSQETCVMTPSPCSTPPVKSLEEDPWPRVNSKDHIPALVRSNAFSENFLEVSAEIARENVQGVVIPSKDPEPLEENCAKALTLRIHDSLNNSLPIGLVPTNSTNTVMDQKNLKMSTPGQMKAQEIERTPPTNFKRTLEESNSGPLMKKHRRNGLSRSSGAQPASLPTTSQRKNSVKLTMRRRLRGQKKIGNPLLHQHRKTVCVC", "test": "Western immunoblotting of Wip1 and pSer15-p53", "type": "cell-based", "conditions": "TC32 and CHLA258 cells, 2 d", "description": "(§1) Whole-cell lysates were extracted in cell lysis buffer (Cell Signaling) supplemented with EDTA-free protease inhibitors and PhosSTOP™ phosphatase inhibitors (Roche). Western immunoblotting was performed using standard techniques. Primary antibodies used included anti-MDM2 (ab178938; Abcam), anti-MDM2 (86934; Cell Signaling), anti-MDM4 (A300-287A; Bethyl Laboratories), anti-p53 (2527S; Cell Signaling), anti-p21 (2946S; Cell Signaling), anti-Vinculin (18058; Abcam), anti-Wip1 (A300-664A; Bethyl Laboratories), anti-pSer15-p53 (9284; Cell Signaling), anti-USP7 (A300-033A; Bethyl Laboratories), and anti-Tubulin (cp06; CalBiochem)."}, "[3]": {"system": "TC32 xenograft tumor tissues", "test": "Pharmacodynamics study in TC32 xenograft tumor tissue (Western blot, quantitative PCR)", "type": "in vivo, mice", "conditions": "three doses 30 mg/kg IV q.o.d., 8 h after last dose", "description": "as §1\nRNA was extracted from cells with the RNeasy® kit and on-column DNA digestion (Qiagen). cDNA was prepared using M-MLV reverse transcription (ThermoFisher Scientific). TaqMan™ Gene Expression Master Mix (Applied Biosystems) was used per the manufacturer's protocol. TaqMan™ probes included RPL13A (Hs04194366_g1; ThermoFisher Scientific), CDKNIA (Hs00355782_m1; Thermo Fisher Scientific), and MDM2 (Hs01066930_m1; ThermoFisher Scientific). Data were collected in triplicate and analyzed using the ΔΔCT method.\nFor pharmacodynamics studies, tumor xenografts were established in six nude female mice by implanting three million TC32 cells or PDX tumor fragments into the right flank. Animals were randomized to either ATSP-7041 (n=3) or vehicle treatment (n=3). […]"}}, "note": "Entries after “also recorded” stand apart in the source; their conditions may differ.", "data": [{"compound": "CC(=O)N[C@@H](CC(C)C)C(=O)N[C@H](C(=O)N[C@@H](Cc1ccccc1)C(=O)N[C@]1(C)CCCCCCC=CCCC[C@@](C)(C(=O)N[C@@H](CO)C(=O)N[C@@H](C)C(=O)N[C@@H](C)C(N)=O)NC(=O)[C@H](CC2CCC2)NC(=O)[C@H](CCC(N)=O)NC(=O)[C@H](C)NC(=O)[C@H](Cc2c[nH]c3ccccc23)NC(=O)[C@H](Cc2ccc(O)cc2)NC(=O)[C@H](CCC(=O)O)NC1=O)[C@@H](C)O", "note": "[ATSP-7041, Ac-Leu17-Thr-Phe-cyclo(R8-Glu-Tyr-Trp-Ala-Gln-Cba-S5)-Ser-Ala-Ala30-NH2]", "values": [{"measurement": "cell viability, normalized to vehicle control", "setting": "[1]", "value": "selectively reduced the viability"}, {"measurement": "phosphorylation of p53 at Serine 15, combination of ATSP-7041 and GSK2830371", "setting": "[2]", "value": "increased phospho-Serine15-p53 protein levels; also recorded: increased the phosphorylation of p53 at Serine 15; also recorded: increases the level of pSer15 on p53 more than with either molecule alone"}, {"measurement": "MDM2, p53, and p21 protein levels in tumor tissue", "setting": "[3]", "value": "increase of MDM2, p53, and p21 protein levels; also recorded: increase in MDM2, p53, and p21 protein levels"}, {"measurement": "MDM2 and p21 mRNA levels in tumor tissue", "setting": "[3]; quantitative PCR", "value": "increase of MDM2 mRNA levels; also recorded: increase of p21 mRNA levels"}]}]}
